In patent US20160045496A1, “USE OF (RS)-S-CYCLOPROPYL-S-(4--5-(TRIFLUOROMETHYL)PYRIMIDIN-2-YL]AMINO}PHENYL)SULFOXIMIDE FOR TREATMENT OF SPECIFIC TUMOURS” (BAYER PHARMA AKTIENGESELLSCHAFT, priority 2013, published 2016):

What was measured:
Format in all cases: cell-based
[1] = test system: UPN-1 cells; test: Cytotoxic action after 24 hours, WST-1 viability; conditions: Homo sapiens, UPN1, UPN-1 (Institut Gustave Roussy), mantle cell lymphoma, after 24 hours of incubation
Description: (§1) The cytotoxic action of BAY 1000394 on Jeko-1 and UPN-1 cells was also determined after 24 hours of incubation with the substance. To this end, 50 000 cells per measurement point were plated out in 96-well plates and incubated with BAY 1000394 in various concentrations in the range of 0.001 to 1.0 μM. After 24 hours, the viability of the cells was determined in accordance with the WST-1 method (Roche Diagnostics, catalogue number 11644807001).
(§2) The substances were investigated in the following cell lines, which, by way of example, represent the specified indications (table 1).

[2] = test system: Jeko-1 cells; test: Cytotoxic action after 24 hours, WST-1 viability; conditions: Homo sapiens, Jeko-1 (Institut Gustave Roussy), mantle cell lymphoma, after 24 hours of incubation
Description: as §1, §2

[3] = test system: HBL-1 cells; test: Proliferation assay, suspension cells, Cell Titer-Glo; conditions: Homo sapiens, HBL1, 96 h; HBL-1 (Charité, Berlin), diffuse large B-cell lymphoma; 4 days incubation; CTG
Description: (§3) Cells growing in suspension (HBL-1, TMD-8, GRANTA-519, Jeko-1) were plated out in a cell density of 2000-4000 cells/measurement point, depending on the rate of growth of the cell line, in a black-walled, clear-bottom 96-well multititre plate in 100 μl of growth medium (DMEM/HAMS F12, 2 mM L-glutamine, 10% foetal calf serum). After 24 hours, cell density was determined in one plate (zero plate) by adding 60 μl/measurement point of CTG solution (Promega Cell Titer-Glo solution (catalogue numbers G755B and G756B)), subsequent incubation for 2 min followed by 10 min shaking (in the dark) and measurement of luminescence (VICTOR V, Perkin Elmer). For the test plates, the test substances were prepared in various concentrations (0 μM, and also in the range of 0.001-3 μM; the final concentration of the solvent dimethyl sulphoxide was 0.5%) as 3× concentrated solutions in fresh growth medium. Aliquots of 50 μl each were added to the cell suspensions and the cells were incubated for 4 days in the presence of the test substances. Subsequently, cell density was determined using CTG solution as described above and IC50 values were calculated by means of a four parameter fit.
as §2

[4] = test system: TMD-8 cells; test: as above; conditions: Homo sapiens, TMD8, 96 h; TMD-8 (Charité, Berlin), diffuse large B-cell lymphoma; 4 days incubation; CTG
Description: as §3, §2

[5] = test system: GRANTA-519 cells; test: as above; conditions: Homo sapiens, 96 h; GRANTA-519 (DSMZ ACC-342), mantle cell lymphoma; 4 days incubation; CTG
Description: as §3, §2

[6] = test system: Jeko-1 cells; test: as above; conditions: Homo sapiens, 96 h; Jeko-1 (DSMZ ACC-553), mantle cell lymphoma; 4 days incubation; CTG
Description: as §3, §2

[7] = test system: SiHa cells; test: Proliferation assay, adherent cells, crystal violet; conditions: Homo sapiens, 96 h, SiHa (ATCC HTB-35), squamous-cell carcinoma, cervix, 4 days incubation
Description: (§4) Human tumour cells were originally obtained from the American Type Culture Collection (ATCC), the Deutsche Sammlung von Mikroorganismen and Zellkulturen (DSMZ) (German Collection of Microorganisms and Cell Cultures) in Braunschweig, CLS Cell Lines Service GmbH in Eppelheim, the Institut Gustave Roussy (Villejuif, France), or the Charité in Berlin (table 1). Adherently growing cells (A-673, RD, Rh30, Rh41, SK-N-AS, NCI-H2286, HCC-366, FaDu, CAL-33, RPMI-2650, SiHa) were plated out in a density of 3000-4000 cells/measurement point, depending on the rate of growth of the cell line, in a 96-well multititre plate in 200 μl of growth medium (DMEM/HAMS F12, 2 mM L-glutamine, 10% foetal calf serum). After 24 hours, the cells of one plate (zero plate) were dyed with crystal violet (see below), whereas the medium of the other plates was replaced with fresh culture medium (200 μl) to which the test substances were added in various concentrations (0 μM, and also in the range of 0.001-3 μM; the final concentration of the solvent dimethyl sulphoxide was 0.5%). The cells were incubated for 4 days in the presence of the test substances. Cell proliferation was determined by dyeing the cells with crystal violet: the cells were fixed at room temperature for 15 min by adding 20 μl/measurement point of an 11% strength glutaraldehyde solution. After washing the fixed cells three times with water, the plates were dried at room temperature. The cells were dyed by adding 100 μl/measurement point of a 0.1% strength crystal violet solution (pH adjusted to pH 3 by adding acetic acid). After washing the dyed cells three times with water, the plates were dried at room temperature. The dye was dissolved by adding 100 μl/measurement point of a 10% strength acetic acid solution. Absorbance was determined photometrically at a wavelength of 595 nm. The percentage change in cell growth was calculated by normalizing the measured values to the absorbance values of the zero plate (=0%) and the absorbance of the untreated (0 μM) cells (=100%). The measured data were normalized to 0% inhibition (cell proliferation without inhibitor) and 100% inhibition (zero plate). The IC50 values were determined by means of a four parameter fit.
as §2

[8] = test system: HCC-366 cells; test: as above; conditions: Homo sapiens, HCC366, 96 h, HCC-366 (DSMZ ACC-492), squamous-cell carcinoma, lung, 4 days incubation
Description: as §4, §2

[9] = test system: NCI-H2286 cells; test: as above; conditions: Homo sapiens, 96 h, NCI-H2286 (ATCC CRL-5938), squamous-cell carcinoma, lung, 4 days incubation
Description: as §4, §2

[10] = test system: FaDu cells; test: as above; conditions: Homo sapiens, 96 h, FaDu (ATCC HTB-43), squamous-cell carcinoma, head and nape, 4 days incubation
Description: as §4, §2

[11] = test system: Rh41 cells; test: as above; conditions: Homo sapiens, 96 h, Rh41 (DSMZ ACC-592), rhabdomyosarcoma, 4 days incubation
Description: as §4, §2

[12] = test system: RPMI-2650 cells; test: as above; conditions: Homo sapiens, 96 h, RPMI-2650 (DSMZ ACC-287), squamous-cell carcinoma, head and nape, 4 days incubation
Description: as §4, §2

[13] = test system: Rh30 cells; test: as above; conditions: Homo sapiens, 96 h, Rh30 (DSMZ ACC-489), rhabdomyosarcoma, 4 days incubation
Description: as §4, §2

[14] = test system: A-673 cells; test: as above; conditions: Homo sapiens, A673, 96 h, A-673 (ATCC CRL-1598), rhabdomyosarcoma, 4 days incubation
Description: as §4, §2

[15] = test system: SK-N-AS cells; test: as above; conditions: Homo sapiens, 96 h, SK-N-AS (ATCC CRL-2137), neuroblastoma, 4 days incubation
Description: as §4, §2

[16] = test system: CAL-33 cells; test: as above; conditions: Homo sapiens, 96 h, CAL-33 (DSMZ ACC-447), squamous-cell carcinoma, head and nape, 4 days incubation
Description: as §4, §2

[17] = test system: RD cells; test: as above; conditions: Homo sapiens, 96 h, RD (CLS-300401), rhabdomyosarcoma, 4 days incubation
Description: as §4, §2

C[C@@H](O)[C@@H](C)Oc1nc(Nc2ccc([S@](=N)(=O)C3CC3)cc2)ncc1C(F)(F)F [BAY 1000394, (R)-S-cyclopropyl-S-(4-{[4-{[(1R, 2R)-2-hydroxy-1-methylpropyl]oxy}-5-(trifluoromethyl)pyrimidin-2-yl]amino}phenyl)sulphoximide]
IC50 [1]: 4.7 nM
IC50 [2]: 31 nM
IC50 [3]: 24 nM
IC50 [4]: 35 nM
IC50 [5]: 44 nM
IC50 [6]: 20 nM
IC50 [7]: 10 nM
IC50 [8]: 20 nM
IC50 [9]: 7 nM
IC50 [10]: 46 nM
IC50 [11]: 17 nM
IC50 [12]: 13 nM
IC50 [13]: 23 nM
IC50 [14]: 9.8 nM
IC50 [15]: 22 nM
IC50 [16]: 19 nM
IC50 [17]: 26 nM
